Key:
[1] = biological target: T1, human TLR8 (Homo sapiens, UniProt Q9NR97); experiment: TLR8 cellular reporter assay (HEK293, NFκB-luc); format: cell-based; details: HEK293 cells transfected with CMV-TLR8 and NFκB-luc, 6 hours incubation; lowest effective concentration
T1 construct: expressed in transfected cells; host or cells: HEK293 cells, transient transfection with TLR8 plasmid and NFκB-luc plasmid
T1 sequence (Q9NR97 27-1041): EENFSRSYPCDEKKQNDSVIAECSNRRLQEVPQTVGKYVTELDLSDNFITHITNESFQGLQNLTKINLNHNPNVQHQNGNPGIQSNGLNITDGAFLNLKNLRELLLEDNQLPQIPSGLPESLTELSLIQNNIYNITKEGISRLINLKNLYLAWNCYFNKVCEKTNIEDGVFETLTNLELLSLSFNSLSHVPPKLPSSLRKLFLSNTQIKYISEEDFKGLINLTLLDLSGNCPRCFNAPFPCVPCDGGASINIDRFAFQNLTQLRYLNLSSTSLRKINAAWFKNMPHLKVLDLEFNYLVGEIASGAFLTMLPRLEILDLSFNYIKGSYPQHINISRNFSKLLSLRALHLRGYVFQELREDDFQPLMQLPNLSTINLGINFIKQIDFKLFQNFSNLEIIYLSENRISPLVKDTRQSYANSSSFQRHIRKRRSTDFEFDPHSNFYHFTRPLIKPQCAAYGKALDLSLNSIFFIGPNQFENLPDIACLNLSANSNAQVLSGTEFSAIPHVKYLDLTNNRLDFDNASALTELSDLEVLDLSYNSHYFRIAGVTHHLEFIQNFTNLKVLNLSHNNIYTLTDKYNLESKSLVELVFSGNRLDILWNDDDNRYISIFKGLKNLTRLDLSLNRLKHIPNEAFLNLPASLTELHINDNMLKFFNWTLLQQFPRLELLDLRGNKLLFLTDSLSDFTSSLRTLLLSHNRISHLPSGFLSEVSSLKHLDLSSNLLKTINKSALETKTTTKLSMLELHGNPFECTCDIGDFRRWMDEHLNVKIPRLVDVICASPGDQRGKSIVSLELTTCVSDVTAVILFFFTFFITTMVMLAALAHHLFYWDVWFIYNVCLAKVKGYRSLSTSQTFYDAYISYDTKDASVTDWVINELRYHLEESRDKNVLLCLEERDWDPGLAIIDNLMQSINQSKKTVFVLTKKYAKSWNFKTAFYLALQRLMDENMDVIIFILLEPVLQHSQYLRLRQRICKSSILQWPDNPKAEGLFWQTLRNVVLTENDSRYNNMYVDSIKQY
In short: (§1)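 HEK293 cells transiently transfected with receptor expression vector plus NFκB-luciferase reporter, exposed to compound (added in 4% DMSO) for 6 hours at 37° C, 5% CO2. Luciferase activity measured by luminescence; dose-response curves from quadruplicate measurements.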

[2] = biological target: T2, human TLR7 (Homo sapiens, UniProt Q9NYK1); experiment: TLR7 cellular reporter assay (HEK293, NFκB-luc); format: cell-based; details: HEK293 cells transfected with CMV-TLR7 and NFκB-luc, 6 hours incubation; lowest effective concentration
T2 construct: expressed in transfected cells; host or cells: HEK293 cells, transient transfection with CMV-TLR7 plasmid and NFκB-luc plasmid
T2 sequence (Q9NYK1 27-1049): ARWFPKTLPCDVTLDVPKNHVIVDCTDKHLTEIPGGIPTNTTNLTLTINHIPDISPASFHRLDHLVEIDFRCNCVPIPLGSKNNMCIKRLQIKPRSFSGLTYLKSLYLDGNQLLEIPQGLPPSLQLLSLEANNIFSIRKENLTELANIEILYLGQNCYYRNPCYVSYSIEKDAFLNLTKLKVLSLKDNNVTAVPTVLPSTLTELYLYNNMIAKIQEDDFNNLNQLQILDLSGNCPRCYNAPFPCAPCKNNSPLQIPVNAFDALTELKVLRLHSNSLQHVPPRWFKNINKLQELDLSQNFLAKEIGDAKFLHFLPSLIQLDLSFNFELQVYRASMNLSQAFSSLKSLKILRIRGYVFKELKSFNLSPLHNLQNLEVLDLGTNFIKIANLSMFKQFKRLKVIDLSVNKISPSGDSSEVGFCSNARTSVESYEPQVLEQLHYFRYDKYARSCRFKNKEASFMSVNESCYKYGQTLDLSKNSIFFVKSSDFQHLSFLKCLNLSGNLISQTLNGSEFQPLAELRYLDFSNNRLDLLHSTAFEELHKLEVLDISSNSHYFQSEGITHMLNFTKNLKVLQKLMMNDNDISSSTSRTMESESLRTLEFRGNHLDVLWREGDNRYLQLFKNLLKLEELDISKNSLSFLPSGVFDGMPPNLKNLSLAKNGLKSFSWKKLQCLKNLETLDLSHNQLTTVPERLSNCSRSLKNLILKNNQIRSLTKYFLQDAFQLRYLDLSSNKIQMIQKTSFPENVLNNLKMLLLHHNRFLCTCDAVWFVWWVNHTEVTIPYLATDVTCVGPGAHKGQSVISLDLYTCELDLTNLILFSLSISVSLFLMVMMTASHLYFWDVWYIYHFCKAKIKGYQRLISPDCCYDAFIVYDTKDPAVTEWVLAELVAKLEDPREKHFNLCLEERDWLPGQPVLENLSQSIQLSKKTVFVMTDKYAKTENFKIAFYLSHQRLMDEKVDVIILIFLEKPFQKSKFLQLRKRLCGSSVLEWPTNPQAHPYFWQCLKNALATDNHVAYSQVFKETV
In short: as §1

[3] = system: interferon-stimulated responsive elements (ISRE); experiment: Activation of ISRE promoter elements by conditioned media from PBMC (HEK-ISREluc); format: cell-based, human; details: Homo sapiens; conditioned media from PBMC transferred to HEK-ISREluc cells, 24 hours; lowest effective concentration; read-out: PBMC LEC
In short: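 Human PBMCs (≥2 donors, RPMI + 10% human AB serum, 2×10^5 cells/well) incubated overnight with compound; supernatant transferred to HEK293 cells stably carrying pISRE-Luc for 24 h, then luciferase read. LEC = compound concentration on PBMCs giving luciferase signal at least two-fold above assay SD; recombinant IFN-α-2a standard.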

| SMILES | TLR8 LEC [1] | TLR7 LEC [2] | minimal effective concentration [3] |
| --- | --- | --- | --- |
| Cc1cccc(Cn2ccc3nc(N)nc(NCc4cc(C)on4)c32)n1 [Compound 90] | >25 µM | 0.03 µM | 0.01 µM |
| CCCC[C@@H](CCO)Nc1nc(N)nc2ccn(CC3CCCO3)c12 (stereo partly drawn) [Compound 91] | 2.17 µM | 0.05 µM | 0.02 µM |
| CCC[C@@H](CCO)Nc1nc(N)nc2ccn(CC3CCCO3)c12 (stereo partly drawn) [Compound 92] | 4.46 µM | 0.10 µM | 0.02 µM |
| CCCCNc1nc(N)nc2c(F)cn(Cc3ccccc3)c12 [Compound 93] | >25 µM | 0.26 µM | 0.12 µM |
| CCC[C@@H](CCO)Nc1nc(N)nc2c(F)cn(Cc3ccccc3)c12 [Compound 94] | >25 µM | 0.01 µM | 0.01 µM |
| CCCC[C@@H](CCO)Nc1nc(N)nc2c(F)cn(Cc3ccccc3)c12 [Compound 95] | 3.26 µM | 0.01 µM | 0.007 µM |
| CCCCNc1nc(N)nc2ccn(Cc3c(OC)cccc3OC)c12 [Compound 97] | 0.23 µM | <0.01 µM | 0.001 µM |
| CCCC(C)Nc1nc(N)nc2ccn(Cc3c(OC)cccc3OC)c12 (stereo not drawn) [Compound 98] | 0.22 µM | <0.01 µM | 0.001 µM |
| CCCC[C@@H](CCO)Nc1nc(N)nc2ccn(Cc3c(OC)cccc3OC)c12 [Compound 99] | 0.1 µM | <0.01 µM | < 0.001 µM |
| CCC[C@@H](CO)Nc1nc(N)nc2ccn(Cc3c(OC)cccc3OC)c12 [Compound 100] | 0.04 µM | <0.01 µM | < 0.001 µM |
| CCCC[C@@H](CO)Nc1nc(N)nc2ccn(Cc3c(OC)cccc3OC)c12 [Compound 101] | 0.08 µM | <0.01 µM | < 0.001 µM |
| CCC[C@@H](CCO)Nc1nc(N)nc2ccn(Cc3c(OC)cccc3OC)c12 [Compound 102] | 0.14 µM | <0.01 µM | < 0.001 µM |
| COCCNc1nc(N)nc2ccn(Cc3ccccc3OC)c12 [Compound 103] | >25 µM | 0.032 µM | 0.018 µM |
| CC(Nc1nc(N)nc2ccn(C)c12)c1ccccn1 (stereo not drawn) [Compound 104] | >25 µM | 11.960 µM | 1.98 µM |
| COCCn1ccc2nc(N)nc(NC(C)c3ccccn3)c21 (stereo not drawn) [Compound 105] | >25 µM | 0.827 µM | 0.194 µM |
| COCCNc1nc(N)nc2ccn(Cc3cccc(OC)c3)c12 [Compound 107] | >25 µM | 2.030 µM | 2.13 µM |
| CC(C)c1cc(CNc2nc(N)nc3ccn(Cc4cscn4)c23)no1 [Compound 108] | >25 µM | 0.126 µM | 0.07 µM |
| CCC[C@@H](CCO)Nc1nc(N)nc2ccn(Cc3cccc(OC)c3)c12 [Compound 109] | 7.17 µM | 0.005 µM | 0.003 µM |
| COc1ccccc1Cn1ccc2nc(N)nc(NCc3cc(C)on3)c21 [Compound 110] | >25 µM | 0.002 µM | 0.001 µM |
| COCCNc1nc(N)nc2ccn(Cc3cccc(CN4CCCC4)c3)c12 [Compound 111] | >25 µM | 0.637 µM | 0.293 µM |
| Cc1cc(CNc2nc(N)nc3ccn(Cc4ccncc4)c23)no1 [Compound 112] | >25 µM | 0.741 µM | 0.209 µM |
| COCCNc1nc(N)nc2ccn(Cc3cccc(C)n3)c12 [Compound 113] | >25 µM | 1.320 µM | 0.807 µM |
| COCCNc1nc(N)nc2ccn(Cc3ncccc3OC)c12 [Compound 115] | 7.93 µM | 0.241 µM | 0.079 µM |
| CCCCNc1nc(N)nc2ccn(Cc3cccc(CN4CCCC4)c3)c12 [Compound 116] | >25 µM | 0.049 µM | 0.022 µM |
| COCCNc1nc(N)nc2ccn(Cc3ccc(C(F)(F)F)cn3)c12 [Compound 117] | >22.7 µM | 2.950 µM | 1.43 µM |
| COCCNc1nc(N)nc2ccn(Cc3ccncc3)c12 [Compound 118] | >25 µM | 1.650 µM | 3.01 µM |
| COCCNc1nc(N)nc2ccn(Cc3cc(OC)ccn3)c12 [Compound 120] | >25 µM | 3.220 µM | 2.16 µM |
| COCCNc1nc(N)nc2ccn(Cc3ccncc3OC)c12 [Compound 121] | >25 µM | 0.172 µM | 0.046 µM |

From patent US11220504B2, “Pyrrolo[3,2-d] pyrimidine derivatives for the treatment of viral infections and other diseases” (JANSSEN SCIENCES IRELAND UNLIMITED COMPANY, priority 2012, dated 2022)
